“And” between values parts separate entries of the source, which are not always exact repeats. Equal values may be shown once.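 Protocol summary: plate cells (96-well), add compound at 5 concentrations, incubate 48 h, interpolate endpoints linearly. Here, GI50 denotes the concentration required for 50% inhibition of growth. Definition used: TGI = concentration required for complete inhibition of growth.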
Tests used:
Assay in all cases: inhibition of tumour cell growth, NCI panel, 48 h
HCC-2998 colon = tested on: HCC-2998 colon
OVCAR-5 ovarian = tested on: OVCAR-5 ovarian
MCF7 breast = tested on: MCF7 breast
HOP-62 NSCLC = tested on: HOP-62 NSCLC
LOX IMVI melanoma = tested on: LOX IMVI melanoma
OVCAR-8 ovarian = tested on: OVCAR-8 ovarian
DU-145 prostate = tested on: DU-145 prostate
HCT-116 colon = tested on: HCT-116 colon
UACC-62 melanoma = tested on: UACC-62 melanoma
MDA-MB-231 breast = tested on: MDA-MB-231 breast

| SMILES | TGI (HCC-2998 colon) | TGI (OVCAR-5 ovarian) | TGI (MCF7 breast) | TGI (HOP-62 NSCLC) | TGI (LOX IMVI melanoma) | TGI (OVCAR-8 ovarian) | TGI (DU-145 prostate) | TGI (HCT-116 colon) | TGI (UACC-62 melanoma) | TGI (MDA-MB-231 breast) | GI50 (HCC-2998 colon) | GI50 (OVCAR-5 ovarian) | GI50 (MCF7 breast) | GI50 (HOP-62 NSCLC) | GI50 (LOX IMVI melanoma) | GI50 (OVCAR-8 ovarian) | GI50 (DU-145 prostate) | GI50 (HCT-116 colon) | GI50 (MDA-MB-231 breast) |
| --- | --- | --- | --- | --- | --- | --- | --- | --- | --- | --- | --- | --- | --- | --- | --- | --- | --- | --- | --- |
| Cc1cc2c(cc1Cl)SSc1cc(Cl)c(C)cc1S(=O)(=O)Nc1nc(N)nn1C(O)n1nc(N)nc1NS2(=O)=O | > 10 µM | > 10 µM | > 10 µM | > 10 µM | > 10 µM | > 10 µM | > 10 µM | > 10 µM | – | – | – | – | – | – | – | – | – | – | – |
| C#CCOC(=O)C=[N+]=[N-] | – | > 10 µM | > 10 µM | > 10 µM | > 10 µM | > 10 µM | > 10 µM | > 10 µM | > 10 µM | > 10 µM | – | – | – | – | – | – | – | – | – |
| CN(C)c1ccc(-c2c(C#N)c(-c3ccccc3)n(NS(=O)(=O)c3ccccc3)c(=O)c2C#N)cc1 | > 100 µM | > 100 µM | > 100 µM | > 100 µM | > 100 µM | > 100 µM | – | > 100 µM | > 100 µM | > 100 µM | – | – | – | – | – | – | – | – | – |
| CCOC(=O)c1ccc(N2C(=O)/C(=C/c3ccc(N(CCC#N)CCC#N)cc3)N=C2c2cc([N+](=O)[O-])ccc2Cl)cc1 | > 100 µM | > 100 µM | – | > 100 µM | > 100 µM | > 100 µM | – | > 100 µM | > 100 µM | – | – | – | – | – | – | – | – | – | – |
| COc1ccccc1C1C(C#N)=C(N)SC(N)=C1C#N | > 100 µM | > 100 µM | > 100 µM | > 100 µM | > 100 µM | > 100 µM | > 100 µM | > 100 µM | – | 60.7 µM | > 100 µM | > 100 µM | 30.6 µM | > 100 µM | 50.2 µM | 90.4 µM | 41.3 µM | 43.8 µM | 21.6 µM |
| CC(C)C(Sc1nc(-c2ccccc2)c(-c2ccccc2)[nH]1)C(=O)N/N=C/c1ccc(Cl)cc1 (stereo not drawn) | – | 52.4 µM | – | 42.5 µM | 28.9 µM | 53.6 µM | – | 29.4 µM | 40.1 µM | – | – | – | – | – | – | – | – | – | – |
| Cc1cccc(C)c1NC(=S)N/C=C(\C#N)C(N)=O | – | > 100 µM | > 100 µM | > 100 µM | > 100 µM | > 100 µM | > 100 µM | > 100 µM | > 100 µM | > 100 µM | – | – | – | – | – | – | – | – | – |
| CCOC(=O)Cn1nnc2ccc(Nc3nc4ccccc4nc3C(=O)OCC)cc21 | > 100 µM | > 100 µM | > 100 µM | > 100 µM | > 100 µM | > 100 µM | > 100 µM | > 100 µM | > 100 µM | – | – | – | – | – | – | – | – | – | – |
| Nc1nc(N)c2cc(-c3cc4ccccc4[nH]3)ccc2n1 | – | 65 µM | 33.6 µM | > 100 µM | 36.3 µM | > 100 µM | 58.8 µM | > 100 µM | 33.9 µM | 39.3 µM | – | – | – | – | – | – | – | – | – |
| CN(C)CC1CCC/C(=C\c2ccc(Cl)c(Cl)c2)C1=O (stereo not drawn) | 25.5 µM | 37.4 µM | 5.44 µM | 26.8 µM | – | 9.89 µM | 23 µM | 3.96 µM | 12.8 µM | 10.9 µM | – | – | – | – | – | – | – | – | – |
| O=C1c2cccnc2S(=O)(=O)N1c1ccc(Br)cc1 | – | > 100 µM | – | > 100 µM | > 100 µM | > 100 µM | > 100 µM | > 100 µM | > 100 µM | > 100 µM | – | – | – | – | – | – | – | – | – |
| CCOC(=O)c1nc2ccccc2nc1Nc1cc(OC)c(OC)c(OC)c1 | > 100 µM | > 100 µM | > 100 µM | > 100 µM | – | – | > 100 µM | > 100 µM | > 100 µM | > 100 µM | – | – | – | – | – | – | – | – | – |
| CCCCOc1ccc(/C=C/C2=[N+](CCO)CCO2)cc1 | 48.3 µM | > 100 µM | > 100 µM | > 100 µM | – | > 100 µM | > 100 µM | > 100 µM | > 100 µM | > 100 µM | – | – | – | – | – | – | – | – | – |
| COP(=O)(OC)[C@@](O)(c1ccccc1)[C@@H](O)[C@H](O)c1ccccc1 | – | > 100 µM | 63.3 µM | – | 56.4 µM | > 100 µM | > 100 µM | > 100 µM | > 100 µM | > 100 µM | – | – | – | – | – | – | – | – | – |
| Cn1c2ccccc2n2c(=O)c(-c3ccc(Cl)cc3)nnc12 | > 100 µM | > 100 µM | > 100 µM | – | > 100 µM | > 100 µM | > 100 µM | > 100 µM | – | > 100 µM | – | – | – | – | – | – | – | – | – |
| CC(C)(C)OC(=O)C1C(=O)NC(=O)CC1C(OCc1ccccc1)C(OCc1ccccc1)C(COCc1ccccc1)OCc1ccccc1 (stereo not drawn) | > 100 µM | > 100 µM | > 100 µM | – | > 100 µM | > 100 µM | > 100 µM | > 100 µM | – | > 100 µM | – | – | 50 µM and 15.3 µM | – | > 100 µM and 41.8 µM | – | – | > 100 µM and 48.1 µM | > 100 µM and 40.5 µM |
| CN(C)CCNc1c(O)c2c(c(O)c1Cl)C(=O)C=CC2=O | 3.59 µM | 3.12 µM | – | 3.65 µM | – | 3.4 µM | 3.36 µM | 3.32 µM | 3.74 µM | 2.72 µM | – | – | – | – | – | – | – | – | – |
| COC1CCC(O)C(CO)O1 (stereo not drawn) | > 100 µM | > 100 µM | – | > 100 µM | 65.4 µM | > 100 µM | – | > 100 µM | > 100 µM | – | – | – | – | – | – | – | – | – | – |
| COc1nc2ncc([C@@H](OC(C)=O)[C@@H](COC(C)=O)OC(C)=O)nc2c(=O)n1C | – | > 100 µM | > 100 µM | > 100 µM | > 100 µM | > 100 µM | > 100 µM | > 100 µM | > 100 µM | > 100 µM | – | – | – | – | – | – | – | – | – |
| CCOc1cc2c(cc1OC)c[n+](C)c1c3cc(OC)c(OC)cc3ccc21 | > 100 µM | > 85.2 µM | – | > 100 µM | > 81.3 µM | > 100 µM | – | > 100 µM | > 100 µM | – | – | – | – | – | – | – | – | – | – |
| O=C(CN1CCCCC1)c1ccc2[nH]c(=O)oc2c1 | – | > 100 µM | > 100 µM | > 100 µM | > 100 µM | > 100 µM | > 100 µM | > 100 µM | > 100 µM | > 100 µM | – | – | – | – | – | – | – | – | – |
| COC(=O)C1=C(C(=O)OC)C23CC4CCC2(C(=O)C1O3)C4(C)C (stereo not drawn) | > 100 µM | > 100 µM | – | – | > 100 µM | > 100 µM | > 100 µM | > 100 µM | > 100 µM | – | – | – | – | – | – | – | – | – | – |
